From patent publication US20030194376A1, “Ultrasound contrast agents and methods of making and using them” (Bracco International B.V., priority 1990, published 2003)

test: Water solubility of the filling gas (Bunsen coefficient, Gas Encyclopaedia); format: physicochemical; conditions: gas solubility divided by square root of molecular weight
Text: In the Tables, the water solubility factors have also been taken from the aforecited Gas Encyclopaedia from “L'Air Liquide”, Elsevier Publisher (1976).

| Structure (SMILES) | S gas {square root} Mw |
| --- | --- |
| [Kr] [Kr, Krypton] | .006 |
| FC(F)(F)F [CF4] | .0004 |
| FC(F)(F)Br [CBrF3] | .0004 |
